{"source": "patent US20060127400A1", "about": "“Activation of regulatory T cells by alpha-melanocyte stimulating hormone” (THE SCHEPENS EYE RESEARCH INSTITUTE, INC., priority 1999, published 2006)", "system": "primed T cells", "assay": "total TGF-β production by TCR-stimulated primed T cells, Mv1Lu (CCL-64) bioassay", "format": "cell-based, mouse (BALB/c)", "details": "48 h", "protocol": "TGF-β bioassay. To measure total TGF-β, 100 μl of conditioned media was pretreated according to standard procedures (24) with 10 μl 1N HCL to lower the media pH to 2 and incubated for 1 hour at 4° C. The acid was neutralized with 20 μl of a 1:1 mixture of 1N NaOH: 1M HEPES returning the culture supernatant to a pH 7.3. The transiently acidified conditioned media was then used in the Mv1Lu assay; diluted 1:4 in EMEM+0.5% FBS. To the wells of a Falcon 96-well flat-bottom plate, 100 μl of diluted transiently acidified samples were added with 100 μl of 1×10^5 Mv1Lu cells (CCL-64; ATCC, Rockville, Md.). The plate was incubated for 20 hours at 37° C., 5% CO2 followed by the addition of 20 μl of 50 μCi/ml 3H-thymidine and the plate was incubated for an additional 4 hours. Supernatant was discarded and 50 μl of 10× Trypsin-EDTA (Biowhittaker, Walkersville, Md.) solution was added to each well and the plate was incubated for 15 minute at 37° C. The cells were collected onto filter paper using a Tomtec Plate Harvester 96 and counts per minute (CPM) of incorporation 3H-thymidine was measured using a Wallac 1205 Betaplate Liquid Scintillation Counter. Cultures of known amounts of purified activated TGF-β1, 20 ng/ml to 0.2 pg/ml (R&:D Systems), were prepared in the same plate for calculating a standard curve to quantify the concentration of total TGF-β in the samples.\nPrimed T Cell In Vitro Assays. From draining lymph nodes of BALB/c mice immunized 7 days previously with MT-Ag, primed T cells were isolated using CD3 enrichment columns (R&D Systems). T-cells (4×10^5 cells) suspended in serum-free media were added to the wells of a 96 well, round bottom plate (Corning). To the wells were added α-MSH (30 pg/ml) and anti-TCR antibody (2C11; 1 μg/ml) diluted in serum-free culture media. Various concentrations of TGF-β1 or TGF-β2 in media were added. In a second set of experiments TGF-β1 or TGF-β2 at a fixed concentration of 5 ng/ml were added to the wells at various times (0, 2, 4 and 6 hours) after addition of anti-TCR antibody. The cultures were incubated for 24 hours and 0.5 μCi of 3H-thymidine (NEM, Boston, Mass.) was added to the wells and the cultures were incubated for an additional 24 hours. The cells were collected and incorporated radiolabeled was measured by scintillation counting. Production of TGF-β by the treated primed T cells was done by centrifuging the culture plates 24 hours after the addition of anti-TCR antibody, removing the supernatant, washing the cultures once and adding fresh media. […]\nFIG. 4 is a bar graph of TGF-β production by primed T cells TCR-stimulated in the presence of α-MSH. […] Significance (p=0.05) was determined by Student's t-test between TGF-β concentrations in cultures of activated α-MSH treated T cells and T cells activated in the absence of α-MSH. […]", "note": "“Also recorded” adds a separate entry of the source. No end group written: not given here."}
{"substance": "α-melanocyte stimulating hormone (SYSMEHFRWGKPV; not fully specified; ends and bridges not checked; UniProt P01189 138-150, looked up) [α-MSH, synthetic α-MSH (Peninsula Laboratories); thirteen-amino acid neuropeptide derived from POMC]", "values": [{"measurement": "TGF-β production by TCR-stimulated primed T cells", "setting": "serum-free, transiently acidified supernatant", "value": "enhanced levels; also recorded: significantly enhanced"}, {"measurement": "threshold of α-MSH concentration needed to induce TGF-β1 production", "setting": "TCR-stimulated T cells", "value": 30, "unit": "pg/mL"}]}
